# Source: ChEMBL document CHEMBL1201862, “PubChem BioAssay data set” (2004)
#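 Cells were grown in 96-well plates and exposed to each compound for 48 hours at five concentrations; endpoints were interpolated linearly between bracketing concentrations, or set to the highest concentration if not reached. GI50: concentration for 50% inhibition of growth.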 The source made the active and inactive calls. Rule as the data show it: active = GI50 up to about 1.1 µM and inactive = higher.
# Key:
# Assay in all cases: NCI-60 cell line screen, 48 h
# [1] = test system: MDA-MB-231
# [2] = test system: HCC 2998
# [3] = test system: Malme-3M
# [4] = test system: NCI-H23
# [5] = test system: NCI-H226
# [6] = test system: LOX IMVI
# [7] = test system: SNB-75
# [8] = test system: IGROV-1
# [9] = test system: OVCAR-3
# [10] = test system: SW-620
# [11] = test system: U-251
# [12] = test system: SR
# [13] = test system: SK-OV-3
# [14] = test system: Hs-578T
# [15] = test system: 786-0
# [16] = test system: K562
# [17] = test system: BT-549
# [18] = test system: TK-10
# [19] = test system: MDA-MB-435
# [20] = test system: UO-31
# [21] = test system: M14
# [22] = test system: HT-29
# [23] = test system: HOP-62
# [24] = test system: CCRF-CEM
# [25] = test system: HCT-116
# [26] = test system: OVCAR-8
# [27] = test system: T47D
# [28] = test system: SNB-19
# [29] = test system: ACHN
# [30] = test system: RXF 393
# [31] = test system: RPMI-8226
# [32] = test system: COLO 205
# [33] = test system: HCT-15
# [34] = test system: MCF7
# [35] = test system: MDA-N
# [36] = test system: KM12
# [37] = test system: PC-3
# [38] = test system: HL-60
# [39] = test system: UACC-62
# [40] = test system: SK-MEL-5
# [41] = test system: SF-295
# [42] = test system: SK-MEL-2
# [43] = test system: NCI-H460
# [44] = test system: NCI/ADR-RES
# [45] = test system: EKVX
# [46] = test system: HOP-92
# [47] = test system: SF-268
# [48] = test system: DU-145
# [49] = test system: UACC-257
# [50] = test system: CAKI-1
# [51] = test system: OVCAR-4
# [52] = test system: SN12C
# [53] = test system: NCI-H522
# [54] = test system: SK-MEL-28
# [55] = test system: OVCAR-5
# [56] = test system: A498
# [57] = test system: A549
# [58] = test system: SF-539
compound,measurement,setting,value
O=C(O)/C=C\C(=O)Nc1ccc2c(c1)-c1ccccc1C2,GI50,[1],> 100 µM (inactive)
same,GI50,[2],36.7 µM (inactive)
same,GI50,[3],63.7 µM (inactive)
same,GI50,[4],70.8 µM (inactive)
same,GI50,[5],28.9 µM (inactive)
same,GI50,[6],77.3 µM (inactive)
same,GI50,[7],> 100 µM (inactive)
same,GI50,[8],> 100 µM (inactive)
same,GI50,[9],30.8 µM (inactive)
same,GI50,[10],> 100 µM (inactive)
same,GI50,[11],56.2 µM (inactive)
same,GI50,[12],44.9 µM (inactive)
same,GI50,[13],> 100 µM (inactive)
same,GI50,[14],44.5 µM (inactive)
same,GI50,[15],91.4 µM (inactive)
same,GI50,[16],64.9 µM (inactive)
same,GI50,[17],39.8 µM (inactive)
same,GI50,[18],> 100 µM (inactive)
same,GI50,[19],> 100 µM (inactive)
same,GI50,[20],> 100 µM (inactive)
same,GI50,[21],> 100 µM (inactive)
same,GI50,[22],> 100 µM (inactive)
same,GI50,[23],81.3 µM (inactive)
same,GI50,[24],56.8 µM (inactive)
same,GI50,[25],99.3 µM (inactive)
same,GI50,[26],77.4 µM (inactive)
same,GI50,[27],88.1 µM (inactive)
same,GI50,[28],42.3 µM (inactive)
same,GI50,[29],> 100 µM (inactive)
same,GI50,[30],> 100 µM (inactive)
same,GI50,[31],42.5 µM (inactive)
same,GI50,[32],> 100 µM (inactive)
same,GI50,[33],44.7 µM
same,GI50,[34],37.3 µM (inactive)
same,GI50,[35],> 100 µM (inactive)
same,GI50,[36],> 100 µM (inactive)
same,GI50,[37],69.2 µM (inactive)
same,GI50,[38],> 100 µM (inactive)
same,GI50,[39],> 100 µM (inactive)
same,GI50,[40],> 100 µM (inactive)
same,GI50,[41],> 100 µM (inactive)
same,GI50,[42],38.5 µM (inactive)
same,GI50,[43],> 100 µM (inactive)
same,GI50,[44],56.1 µM (inactive)
same,GI50,[45],87.9 µM (inactive)
same,GI50,[46],44.6 µM (inactive)
same,GI50,[47],58.2 µM (inactive)
same,GI50,[48],80.2 µM (inactive)
same,GI50,[49],98.6 µM (inactive)
same,GI50,[50],> 100 µM (inactive)
same,GI50,[51],> 100 µM (inactive)
same,GI50,[52],> 100 µM (inactive)
same,GI50,[53],37 µM (inactive)
same,GI50,[54],> 100 µM (inactive)
same,GI50,[55],> 100 µM (inactive)
same,GI50,[56],94.6 µM (inactive)
same,GI50,[57],> 100 µM (inactive)
O=C(O)CCc1nc(-c2ccccc2-n2cccc2)no1,GI50,[1],> 100 µM (inactive)
same,GI50,[2],> 100 µM (inactive)
same,GI50,[3],52.6 µM (inactive)
same,GI50,[4],> 100 µM (inactive)
same,GI50,[5],> 100 µM (inactive)
same,GI50,[6],> 100 µM (inactive)
same,GI50,[7],> 100 µM (inactive)
same,GI50,[8],73.1 µM (inactive)
same,GI50,[9],29 µM (inactive)
same,GI50,[10],> 100 µM (inactive)
same,GI50,[11],> 100 µM (inactive)
same,GI50,[12],5.46 µM (inactive)
same,GI50,[13],> 100 µM (inactive)
same,GI50,[14],> 100 µM (inactive)
same,GI50,[15],> 100 µM (inactive)
same,GI50,[16],> 100 µM (inactive)
same,GI50,[17],> 100 µM (inactive)
same,GI50,[18],> 100 µM (inactive)
same,GI50,[19],16.6 µM (inactive)
same,GI50,[20],> 100 µM (inactive)
same,GI50,[21],89.1 µM (inactive)
same,GI50,[22],57.3 µM (inactive)
same,GI50,[23],> 100 µM (inactive)
same,GI50,[25],> 100 µM (inactive)
same,GI50,[26],> 100 µM (inactive)
same,GI50,[27],> 100 µM (inactive)
same,GI50,[28],> 100 µM (inactive)
same,GI50,[29],> 100 µM (inactive)
same,GI50,[30],> 100 µM (inactive)
same,GI50,[31],> 100 µM (inactive)
same,GI50,[32],> 100 µM (inactive)
same,GI50,[33],> 100 µM
same,GI50,[34],49.3 µM (inactive)
same,GI50,[35],31.4 µM (inactive)
same,GI50,[36],5.89 µM (inactive)
same,GI50,[37],> 100 µM (inactive)
same,GI50,[39],> 100 µM (inactive)
same,GI50,[40],> 100 µM (inactive)
same,GI50,[41],49.9 µM (inactive)
same,GI50,[42],> 100 µM (inactive)
same,GI50,[43],73.6 µM (inactive)
same,GI50,[58],> 100 µM (inactive)
same,GI50,[44],> 100 µM (inactive)
same,GI50,[45],> 100 µM (inactive)
same,GI50,[46],> 100 µM (inactive)
same,GI50,[47],> 100 µM (inactive)
same,GI50,[48],> 100 µM (inactive)
same,GI50,[49],> 100 µM (inactive)
same,GI50,[50],> 100 µM (inactive)
same,GI50,[51],11.8 µM (inactive)
same,GI50,[52],> 100 µM (inactive)
same,GI50,[53],31 µM (inactive)
same,GI50,[54],> 100 µM (inactive)
same,GI50,[55],> 100 µM (inactive)
same,GI50,[56],> 100 µM (inactive)
same,GI50,[57],> 100 µM (inactive)
